Measured values as given in patent EP0342433A2, “Substituted dibenzothiaphenes” (AMERICAN CYANAMID COMPANY, priority 1988, dated 1989).

What was measured:
IL-2 = IL-2 assay: supernatants of Con A stimulated lymphocytes of treated mice, proliferation of indicator cells; type: in vivo; conditions: mice treated with 100 mg/kg, Con A for 2 days; for IL-2 ASSAY CPM, % Supernatants Tested 5: 5 % supernatant; for IL-2 ASSAY CPM, % Supernatants Tested 10: 10 % supernatant; for IL-2 ASSAY CPM, % Supernatants Tested 20: 20 % supernatant
Method: Spleens were removed from mice and single-cell suspensions were prepared by teasing the spleens apart and rinsing through No. 40 and No. 80 stainless steel mesh screens. Erythrocytes were lysed by a 3- minute exposure to a 0.83% Tris-ammonium chloride solution. Cells were washed 3 times with HBSS and finally suspended in complete RPMI 1640 culture medium consisting of 5% FCS, 2mM L-glutamine, 5 x 10^-5M 2-mercaptoethanol, 10mM HEPES, 100 U/ml of penicillin, and 100 µg/ml of streptomycin. Cells were counted in a hemocytometer and the viability of test cells was always greater than 98% as judged by trypan blue dye exclusion.
IL-2 was made by stimulating 10^7 B6 splenocytes with 1 µg Con A in 1 ml medium. Supernatants were harvested 2 days later and residual Con A was removed by Sephadex G-50 absorption or a-methyl mannoside inactivation. IL-2 activity was tested in the thymocyte proliferation assay described above. Additionally, test samples were added to cultures of lymphoblasts prepared by a three-day Con A stimulation or to IL-2 dependent CT11-2 cells. The proliferation of these indicator cells was measured 24 hours later by ^3HTdR incorporation.
Lymphocytes prepared from normal mice or mice treated with 100 mg/kg of test compound were stimulated with Con A for 2 days. Culture supernatants were harvested and tested for putative IL-2 activity in 3 proliferation assays using thymocytes, lymphoblasts and CTLL-2 cells as indicators. Although supernatants from normal lymphocytes supported the growth of all indicator cells, lymphocytes from treated animals apparently produced more IL-2 as indicated by a greater degree of cell proliferation in all three test systems.

IL-1 = IL-1 assay: supernatants of peritoneal exudate cells of orally treated mice, tested on thymocytes; type: in vivo, C57BI/6 mice; conditions: oral dose 25, 100 or 200 mg/Kg (not stated which), PEC collected four days later, 3H-TdR in thymocytes; for IL-1 ASSAY + LPS: with Lipopolysaccharide (10 μg/ml); for IL-1 ASSAY - LPS: without Lipopolysaccharide
Method: Groups of C57BI/6 mice were treated orally with immunomodulator at doses of 25, 100 or 200 mg/Kg. Four days later peritoneal exudate cells (PEC) were collected and 1 x 10^5 cells were plated in RPMI-1640 medium containing 5% fetal calf serum (FCS). After 2 hours incubation at 37°C the non-adherent cells were washed off and the adherent cells were incubated for 24 hours in RPMI medium with 5% FCS with or without Lipopolysaccharide (10 u.g/ml). The following day the supernatants were collected and assayed for IL-1 on thymocytes. The cultures were incubated for 3 days and then pulsed with ^3H-TdR using 0.5 µCi/well. The cells were harvested and the number of counts per minute (CPM) was determined using a Beckman scintillation counter.

[1] = tested on: colony stimulating factor (CSF); test: Colony stimulating factor production: mouse sera tested on normal bone marrow cells; type: in vivo, mice; conditions: 10% test serum on normal marrow cells, 3 days, 3HTdR; for Production of Colony Stimulating Factor, CPM Test No. 2: control 3,118; for Production of Colony Stimulating Factor, CPM Test No. 1: control 548
Method: Mouse femurs were removed and the marrow cells collected by aspiration through a 23 gauge needle and dispensed into 5 ml of RPMI 1640 culture medium. Aliquots were diluted with a 2% solution of acetic acid containing 0.2% crystal violet and the number of nucleated cells per femur was determined by direct count in a hemocytometer.
Mouse sera were assayed for colony stimulating factor (CSF) in cultures of normal bone marrow cells. CSF was tested in a system in which 5 x 10" normal marrow cells were incubated with 10% test samples in each well of 96-well culture plates for 3 days. Proliferation of these cells was determined by ^3HTdR incorporation.

SRBC = test: Anti-SRBC antibody assay (antibody forming cells, plaques); type: in vivo, mice; conditions: oral, day 0, 200 or 600 mg/kg, SRBC IP day +4; for Production of Anti-SRBC Antibody, CPM Test No. 1: control 1,260; for Production of Anti-SRBC Antibody, CPM Test No. 2: control 830
Method: Compounds were given orally on day 0 at doses of 200 or 600 mg/kg. 0.1 ml of a 10% suspension of sheep RBC (Red Blood Cell) was given IP on day +4. Ten days later splenocytes were obtained from these mice and either 4 x 10^6 ot 2 x 10^6 splenocytes in 50 µl were mixed with 50 µl of a 15% suspension of SRBC containing guinea pig complement (1:4 dilution). 100 ul of this mixture was placed onto a slide culture and incubated for 30 to 45 minutes at 37°C. The number of antibody forming cells was determined by counting the number of visible plaques formed.

P815 tumor cells = test: Macrophage mediated tumor cytostasis (activation of tumoricidal macrophages in compound-treated mice); type: in vivo; conditions: macrophages from compound-treated mice vs normal control macrophages; 3HTdR incorporation into P815 cells; single oral dose, day 4
Text: The test compounds apparently were able to activate these cells in vivo to inhibit the growth of tumor cells in cultures. These "activated" macrophages were detectable in peritoneal exudates of treated mice on day 4 after receiving a single oral dose of the test compound. (Table I). […] (Tables II and III). […] (Table V). Mice treated with the test compounds also respond better to foreign antigens such as sheep red blood cells (SRBC) as shown by their ability to produce higher levels of antibody to this foreign protein. (Table IV). […]
P815 tumor cells obtained from D2 mice were washed twice with HBSS and suspended in 10% FCS- complete medium. Five x 10^3 P815 cells were added to culture wells containing B6 macrophages and the E:T ratios were determined by the numbers of PE cells added initially to each well. […] The amount of ^3HTdR incorporated into target cells was determined in a liquid scintillation counter. The mean cpm were obtained from triplicate cultures with results being presented as percent cytostasis calculated by the fol lowing formula: % cytostasis = (A-B)/A x 100 where A = cpm of cultures containing normal control macrophages; and B = cpm of cultures containing experimental macrophages obtained from compound-treated mice.

SMILES | IL-2 ASSAY CPM, % Supernatants Tested 5 (IL-2) | IL-2 ASSAY CPM, % Supernatants Tested 10 (IL-2) | IL-2 ASSAY CPM, % Supernatants Tested 20 (IL-2) | IL-1 ASSAY + LPS (IL-1) | IL-1 ASSAY - LPS (IL-1) | Production of Colony Stimulating Factor, CPM Test No. 2 [1] | Production of Anti-SRBC Antibody, CPM Test No. 1 (SRBC) | % Cytostasis (P815 tumor cells) | Production of Colony Stimulating Factor, CPM Test No. 1 [1] | Production of Anti-SRBC Antibody, CPM Test No. 2 (SRBC)
CCC(=Nc1ccc2c(c1)-c1cc(N=C(CC)N(C)C)ccc1S2(=O)=O)N(C)C [N,N'"-2,8-Dibenzothiophenediyibis[N,N-dimethyipropanimidamide] S,S-dioxide] | 2,766 CPM | 6,457 CPM | 11,288 CPM | 44,983 CPM | 52,160 CPM | 6,513 CPM | 1,029 CPM | – | – | –
CCC(=Nc1ccc2c(c1)S(=O)(=O)c1cc(N=C(CC)N(C)C)ccc1-2)N(C)C [N , N"-3,7-Dibenzothiophenediylbis[N,N-dimethylpropanimidamide] S,S-dioxide] | 3,238 CPM | 9,050 CPM | 14,568 CPM | 56,015 CPM | 31,260 CPM | 6,650 CPM | 1,437 CPM | – | – | –
CC(=O)Nc1ccc2c(c1)S(=O)(=O)c1cc(F)ccc1-2 [N-(7-Fluoro-3-dibenzothienyl)acetamide S,S-dioxide] | 2,849 CPM | 5,653 CPM | 10,982 CPM | 36,320 CPM | 50,677 CPM | – | – | 13.9% | 976 CPM | 1,469 CPM
CCC(=Nc1ccc2c(c1)S(=O)(=O)c1cc(F)ccc1-2)N(C)C [N'-(7-Fluoro-3-dibenzothienyl)N,N-dimethylpropanimidamide S,S-dioxide] | – | – | – | – | – | – | – | 77.4% | 1,353 CPM | 1,474 CPM
